Calls of active or inactive are those of the source. The calls are words filed in the database; no cut-off is given here.

What is called Ki is a dissociation constant, usually derived from enzyme kinetics or from competition with a known ligand. In general, IC50 refers to the concentration at which inhibition is half-maximal.

In data set [1] the test system is U2OS. Kind of data set: Upregulation of p21 protein expression in human U2OS cells at 2.5 uM measured after 24 hrs by Western blot analysis. The class given is functional, cell-based. In general terms: In western blotting, separated proteins are transferred to a membrane and probed.
Data set [2] deals with U2OS. Nature of the data set: Upregulation of MDM2 protein expression in human U2OS cells at 2.5 uM measured after 24 hrs by Western blot analysis. It counts as functional, cell-based.
Data set [3] has as its system U2OS. Kind of data set: Upregulation of p53 protein expression in human U2OS cells at 2.5 uM measured after 24 hrs by Western blot analysis. It counts as functional, cell-based.
Data set [4] has as its system RKO. Nature of the data set: Upregulation of MDM2 gene expression in human RKO cells at 0.31 uM incubated for 24 hrs by qPCR analysis. The class given is functional, cell-based. (In general: Quantitative PCR measures a nucleic acid by following its amplification.)
The subject of data set [5] is MCF7. Nature of the data set: Upregulation of p53 protein expression in human MCF7 cells at 2.5 uM measured after 24 hrs by Western blot analysis. The class given is functional, cell-based.
Data set [6] has as its system RKO. Nature of the data set: Upregulation of p21 gene expression in human RKO cells at 0.31 uM incubated for 24 hrs by qPCR analysis. It counts as functional, cell-based.
Data set [7] deals with RKO. Kind of data set: Induction of cell cycle arrest in human RKO cells assessed as effect on cell cycle distribution incubated for 24 hrs by FACSCalibur flow cytometry analysis. It counts as functional, cell-based. The settings on record: dose 6.25-25 µM, DDE = dose-dependent effect. (In general: A flow cytometer gives signals particle by particle.)
Data set [8] concerns MCF7. Kind of data set: Effect on MDM4 protein expression in human MCF7 cells at 2.5 uM measured after 24 hrs by Western blot analysis. The class given is functional, cell-based.
The nature of data set [9]: Displacement of 5-FAM labeled PDI peptide from MDM4 C17S mutant (14 to 111 residues) (unknown origin) expressed in Escherichia coli BL21 (DE3) assessed as inhibition constant incubated for 1.5 hrs by fluorescence polarization competition assay. On the set-up: species or system Homo sapiens.
For data set [10], the target named is Cellular tumor antigen p53 (Homo sapiens) (UniProt P04637). Kind of data set: Activation of p53 pathway in human HCT-116 cells incubated for 24 hrs by Western blot analysis. It counts as cell-based. The settings on record: filed as activator, dose 0.078125-2.5 µM, DDE = dose-dependent effect.
Data set [11] can be described thus: Cytotoxicity against HEK293 cells assessed as cell growth inhibition incubated for 4 days by CCK-8 assay. The class given is toxicity, cell-based. The settings on record: human.
Data set [12] concerns RKO. Kind of data set: Upregulation of p21 expression in human RKO cells incubated for 24 hrs by Western blot analysis. It counts as functional, cell-based. The settings on record: dose 0.3125-2.5 µM, DDE = dose-dependent effect.
In data set [13] the test system is RKO. Kind of data set: Induction of PARP cleavage in human RKO cells at 0.3125 to 2.5 uM incubated for 24 hrs by Western blot analysis. To be noted: dose 0.3125-2.5 µM. The class given is functional, cell-based.
Data set [14] has as its system RKO. Nature of the data set: Upregulation of MDM2 gene expression in human RKO cells incubated for 24 hrs by qPCR analysis. The class given is functional, cell-based. To be noted: dose 0.3125-2.5 µM, DDE = dose-dependent effect.
Data set [15] concerns RKO. Kind of data set: Antitumor activity against human RKO cells xenografted in BALB/c mouse assessed as tumor growth inhibition at 50 mg/kg, po qd administered via gavage for 21 consecutive days and measured on day 21 relative to control. The class given is functional. The settings on record: 504 h, time 21 day, read-out: TGI.
Data set [16] deals with RKO. Kind of data set: Induction of apoptosis in human RKO cells assessed as late apoptotic cells at 25 uM measured after 48 hrs by Annexin V-FITC/PI staining based flow cytometry analysis (reference value: 0.82 %). The class given is functional.
In data set [17] the test system is NCI-H460. Nature of the data set: cells. The settings on record: Homo sapiens, NCI-H460, 96 h.
Data set [18] has as its system U2OS. Kind of data set: cells. The settings on record: Homo sapiens, 96 h.
Data set [19] relates to HeLa. Kind of data set: cells. To be noted: Homo sapiens, 96 h.

Chain of Cellular tumor antigen p53 (Homo sapiens) (P04637 whole entry, looked up): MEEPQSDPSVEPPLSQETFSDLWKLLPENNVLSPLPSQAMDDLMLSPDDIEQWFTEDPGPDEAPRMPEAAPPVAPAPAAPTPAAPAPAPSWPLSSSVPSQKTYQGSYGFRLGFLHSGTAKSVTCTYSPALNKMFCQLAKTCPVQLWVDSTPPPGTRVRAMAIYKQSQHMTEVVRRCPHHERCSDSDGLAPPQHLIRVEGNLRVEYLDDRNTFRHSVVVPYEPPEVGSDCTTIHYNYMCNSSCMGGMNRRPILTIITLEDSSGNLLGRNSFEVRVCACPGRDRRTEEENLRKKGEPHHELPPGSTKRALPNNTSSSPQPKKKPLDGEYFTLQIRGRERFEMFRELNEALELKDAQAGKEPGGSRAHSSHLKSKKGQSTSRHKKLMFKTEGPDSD

On to `COc1cc(C(=O)O)ccc1NC(=O)[C@@H]1N[C@@H](CC(C)(C)C)[C@](CNCc2ccncc2)(c2ccc(Cl)cc2F)[C@H]1c1cccc(Cl)c1F`, for which the result in data set [1], in [2], in data set [3], in data set [4], in [5] and in data set [6] was Active. For the same molecule, the outcome in data set [8] and in data set [13] was Active. The Activity result was “Dde” in [7]; “Dde” in data set [10]; “Dde” in data set [12]; “Dde” in data set [14]; 57.01% in [16]. Moreover, the inhibition constant Ki in data set [9] stood at 643 nM. Further, in data set [11], the IC50 at 4 days turned out to be 6250 nM. In addition, the inhibition in vivo at 50 mg/kg in [15] was 5%. The IC50 in data set [17] came to 460 nM; in data set [18], 370 nM; in data set [19], 7370 nM.

(Values after ChEMBL document CHEMBL5154862, “Structure-Based Discovery of MDM2/4 Dual Inhibitors that Exert Antitumor Activities against MDM4-Overexpressing Cancer Cells” (J Med Chem, 2022).)
